Measurements published in patent publication US20070128217A1 (priority 2003, published 2007).

Columns and labels:
[1] = test system: rabbit serum obtained by immunizing a rabbit with the SARS-CoV strain Frankfurt 1; assay type: binding; set-up: Binding of a rabbit serum to linear peptides / Binding of a rabbit serum to looped peptides / Rabbit serum linear peptides / Rabbit serum looped peptides / Binding of a rabbit serum to linear peptides of protein N of SARS-CoV Urbani (Rabbit serum linear peptides) / Binding of a rabbit serum to looped/cyclic peptides of protein N of SARS-CoV Urbani (Rabbit serum looped peptides): unit not given here
[2] = test system: antibodies in sera from SARS patients (sera 1a, 1b, 2, 6, 37, 62, London, SARS-yellow, SARS-green); assay type: binding, human; set-up: Binding of serum 6 to linear peptides of protein X1 of SARS-CoV Urbani / Binding of serum 37 to linear peptides of protein X1 of SARS-CoV Urbani / Binding of serum 6 to looped/cyclic peptide (PEPSCAN-ELISA) / Binding of serum 37 to looped/cyclic peptide (PEPSCAN-ELISA) / Binding of serum 37 to looped/cyclic peptides of protein X1 of SARS-CoV Urbani / Binding of serum 6 to linear peptides of protein X2 / Binding of serum 37 to linear peptides of protein X2 / Binding of serum 37 to looped/cyclic peptides of protein X2 of SARS-CoV Urbani / Binding of serum 6 to linear peptides of protein M of SARS-CoV Urbani / Binding of serum 37 to linear peptides of protein M of SARS-CoV Urbani / Binding of serum 6 to looped/cyclic peptides of protein M of SARS-CoV Urbani / Binding of serum 37 to looped/cyclic peptides of protein M of SARS-CoV Urbani / Binding of serum 6 to linear peptides of protein X3 of SARS-CoV Urbani / Binding of serum 37 to linear peptides of protein X3 of SARS-CoV Urbani / Binding of serum 37 to looped/cyclic peptides of protein X3 of SARS-CoV Urbani / Binding of serum 6 to linear peptides of protein X4 of SARS-CoV Urbani / Binding of serum 37 to linear peptides of protein X4 of SARS-CoV Urbani / Binding of serum 37 to looped/cyclic peptides of protein X4 of SARS-CoV Urbani / Binding of serum 6 to linear peptides of protein X5 of SARS-CoV Urbani / Binding of serum 37 to linear peptides of protein X5 of SARS-CoV Urbani / Binding of serum 37 to looped/cyclic peptides of protein X5 of SARS-CoV Urbani / Binding of serum 6 to linear peptides of protein N of SARS-CoV Urbani / Binding of serum 37 to linear peptides of protein N of SARS-CoV Urbani / Binding of serum 6 to linear peptide (PEPSCAN-ELISA) / Binding of serum 1a to looped/cyclic peptides of protein N of SARS-CoV Urbani / Binding of serum 1b to looped/cyclic peptides of protein N of SARS-CoV Urbani / Binding of serum 2 to looped/cyclic peptides of protein N of SARS-CoV Urbani / Binding of serum 6 to looped/cyclic peptides of protein N of SARS-CoV Urbani / Binding of serum 37 to looped/cyclic peptides of protein N of SARS-CoV Urbani / Binding of serum 62 to looped/cyclic peptides of protein N of SARS-CoV Urbani / Binding of serum London to looped/cyclic peptides of protein N of SARS-CoV Urbani / Binding of serum SARS-green to looped/cyclic peptides of protein N of SARS-CoV Urbani: unit not given here
[3] = test system: control sera (pooled serum of ten healthy LUMC hospital workers; commercial negative donor pooled serum from the Dutch bloodbank); assay type: binding, human; set-up: Binding of Control serum LUMC to linear peptides / Binding of Control serum Blood-bank to linear peptides / Binding of Control serum LUMC to looped peptides / Binding of Control Serum Blood-Bank to Looped peptides / Binding of Control serum LUMC to linear peptides of the protein M of SARS-CoV Urbani / Binding of Control serum Blood-bank to linear peptides of the protein M of SARS-CoV Urbani / Binding of Control serum LUMC to looped peptides of the protein M of SARS-CoV Urbani / Binding of Control Serum Blood-Bank to Looped peptides of the protein M of SARS-CoV Urbani: unit not given here

| Sequence | Rabbit serum linear peptides [1] | Rabbit serum looped peptides [1] | Binding of Control Serum Blood-Bank to Looped peptides [3] | Binding of Control serum Blood-bank to linear peptides [3] | Binding of Control serum LUMC to linear peptides [3] | Binding of Control serum LUMC to looped peptides [3] | Binding of serum 1a to linear peptides of protein X4 of SARS-CoV Urbani [2] | Binding of serum 1a to looped/cyclic peptides of protein X4 of SARS-CoV Urbani [2] | Binding of serum 1b to linear peptides of protein X4 of SARS-CoV Urbani [2] | Binding of serum 1b to looped/cyclic peptides of protein X4 of SARS-CoV Urbani [2] | Binding of serum 2 to linear peptides of protein X4 of SARS-CoV Urbani [2] | Binding of serum 2 to looped/cyclic peptides of protein X4 of SARS-CoV Urbani [2] | Binding of serum 6 to linear peptides of protein X4 of SARS-CoV Urbani [2] | Binding of serum 37 to linear peptides of protein X4 of SARS-CoV Urbani [2] | Binding of serum 37 to looped/cyclic peptides of protein X4 of SARS-CoV Urbani [2] | Binding of serum 62 to linear peptides of protein X4 of SARS-CoV Urbani [2] | Binding of serum 62 to looped/cyclic peptides of protein X4 of SARS-CoV Urbani [2] | Binding of serum London to linear peptides of protein X4 of SARS-CoV Urbani [2] | Binding of serum London to looped/cyclic peptides of protein X4 of SARS-CoV Urbani [2] | Binding of serum SARS-green to linear peptides of protein X4 of SARS-CoV Urbani [2] | also measured |
| --- | --- | --- | --- | --- | --- | --- | --- | --- | --- | --- | --- | --- | --- | --- | --- | --- | --- | --- | --- | --- | --- |
| LCALGKVLPFHRWHT | 0.7 | 0.7 | 0.4 | 0.7 | 0.5 | 0.6 | – | – | – | – | – | – | – | – | – | – | – | – | – | – | Binding of serum 1a to linear peptides of protein X5 of SARS-CoV Urbani [2]: 0.7; Binding of serum 1a to looped/cyclic peptides of protein X5 of SARS-CoV Urbani [2]: 0.4; Binding of serum 1b to linear peptides of protein X5 of SARS-CoV Urbani [2]: 0.6; Binding of serum 1b to looped/cyclic peptides of protein X5 of SARS-CoV Urbani [2]: 0.2; Binding of serum 2 to linear peptides of protein X5 of SARS-CoV Urbani [2]: 0.7; Binding of serum 2 to looped/cyclic peptides of protein X5 of SARS-CoV Urbani [2]: 0.5; Binding of serum 6 to linear peptides of protein X5 of SARS-CoV Urbani [2]: 0.5; Binding of serum 6 to looped/cyclic peptides of protein X5 of SARS-CoV Urbani [2]: 0.4; Binding of serum 37 to linear peptides of protein X5 of SARS-CoV Urbani [2]: 0.7; Binding of serum 37 to looped/cyclic peptides of protein X5 of SARS-CoV Urbani [2]: 0.4; Binding of serum 62 to linear peptides of protein X5 of SARS-CoV Urbani [2]: 0.8; Binding of serum 62 to looped/cyclic peptides of protein X5 of SARS-CoV Urbani [2]: 0.6; Binding of serum London to linear peptides of protein X5 of SARS-CoV Urbani [2]: 0.9; Binding of serum London to looped/cyclic peptides of protein X5 of SARS-CoV Urbani [2]: 0.2; Binding of serum SARS-green to linear peptides of protein X5 of SARS-CoV Urbani [2]: 0.6; Binding of serum SARS-green to looped/cyclic peptides of protein X5 of SARS-CoV Urbani [2]: 0.4; Binding of serum SARS-yellow to linear peptides of protein X5 of SARS-CoV Urbani [2]: 0.2; Binding of serum SARS-yellow to looped/cyclic peptides of protein X5 of SARS-CoV Urbani [2]: 0.4 |
| LFIRQEEVQQELYSP | 0.4 | 0.4 | 0.8 | 0.7 | 0.7 | 0.8 | 0.8 | 0.7 | 0.7 | 0.5 | 0.6 | 0.7 | 0.5 | 0.7 | 0.7 | 0.8 | 0.8 | 0.8 | 0.3 | 0.6 | Binding of serum SARS-green to looped/cyclic peptides of protein X4 of SARS-CoV Urbani [2]: 0.8; Binding of serum SARS-yellow to linear peptides of protein X4 of SARS-CoV Urbani [2]: 0.7; Binding of serum SARS-yellow to looped/cyclic peptides of protein X4 of SARS-CoV Urbani [2]: 0.7 |
| LFLIVAALVFLILCF | 0.3 | 0.4 | 0.7 | 0.5 | 0.4 | 0.4 | 0.6 | 0.8 | 0.5 | 0.4 | 0.3 | 0.7 | 0.4 | 0.6 | 0.5 | 0.6 | 0.5 | 0.7 | 0.2 | 0.6 | Binding of serum 6 to looped/cyclic peptides of protein X4 of SARS-CoV Urbani [2]: 0.3; Binding of serum SARS-green to looped/cyclic peptides of protein X4 of SARS-CoV Urbani [2]: 0.4; Binding of serum SARS-yellow to linear peptides of protein X4 of SARS-CoV Urbani [2]: 0.7; Binding of serum SARS-yellow to looped/cyclic peptides of protein X4 of SARS-CoV Urbani [2]: 0.5 |
| LFLTLIVFTSCELYH | 0.7 | 0.4 | 0.9 | 0.7 | 0.7 | 0.9 | 0.7 | 0.9 | 0.7 | 0.8 | 0.5 | 0.8 | 0.5 | 0.7 | 0.9 | 0.7 | 0.9 | 0.6 | 0.3 | 0.7 | Binding of serum 6 to looped/cyclic peptides of protein X4 of SARS-CoV Urbani [2]: 0.7; Binding of serum SARS-green to looped/cyclic peptides of protein X4 of SARS-CoV Urbani [2]: 0.7; Binding of serum SARS-yellow to linear peptides of protein X4 of SARS-CoV Urbani [2]: 0.6; Binding of serum SARS-yellow to looped/cyclic peptides of protein X4 of SARS-CoV Urbani [2]: 0.6 |
| LGKVLPFHRWHTMVQ | 0.5 | 0.3 | 0.4 | 0.8 | 0.5 | 0.4 | – | – | – | – | – | – | – | – | – | – | – | – | – | – | Binding of serum 1a to linear peptides of protein X5 of SARS-CoV Urbani [2]: 0.7; Binding of serum 1a to looped/cyclic peptides of protein X5 of SARS-CoV Urbani [2]: 0.6; Binding of serum 1b to linear peptides of protein X5 of SARS-CoV Urbani [2]: 0.4; Binding of serum 1b to looped/cyclic peptides of protein X5 of SARS-CoV Urbani [2]: 0.3; Binding of serum 2 to linear peptides of protein X5 of SARS-CoV Urbani [2]: 0.6; Binding of serum 2 to looped/cyclic peptides of protein X5 of SARS-CoV Urbani [2]: 0.2; Binding of serum 6 to linear peptides of protein X5 of SARS-CoV Urbani [2]: 0.5; Binding of serum 6 to looped/cyclic peptides of protein X5 of SARS-CoV Urbani [2]: 0.3; Binding of serum 37 to linear peptides of protein X5 of SARS-CoV Urbani [2]: 0.6; Binding of serum 37 to looped/cyclic peptides of protein X5 of SARS-CoV Urbani [2]: 0.5; Binding of serum 62 to linear peptides of protein X5 of SARS-CoV Urbani [2]: 0.6; Binding of serum 62 to looped/cyclic peptides of protein X5 of SARS-CoV Urbani [2]: 0.3; Binding of serum London to linear peptides of protein X5 of SARS-CoV Urbani [2]: 0.6; Binding of serum London to looped/cyclic peptides of protein X5 of SARS-CoV Urbani [2]: 0.2; Binding of serum SARS-green to linear peptides of protein X5 of SARS-CoV Urbani [2]: 0.4; Binding of serum SARS-green to looped/cyclic peptides of protein X5 of SARS-CoV Urbani [2]: 0.2; Binding of serum SARS-yellow to linear peptides of protein X5 of SARS-CoV Urbani [2]: 0.2; Binding of serum SARS-yellow to looped/cyclic peptides of protein X5 of SARS-CoV Urbani [2]: 0.2 |
